In PubChem BioAssay (NCI):
Values joined by “and” are separate entries in the source; they are usually repeats but may differ in a detail not shown here. Equal values may be shown once.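 Assay format: 96-well plates, 48-hour exposure. The concentration for 50% growth inhibition is given as GI50. TGI marks complete inhibition of growth.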

Legend:
Test in all cases: DTP human tumour cell line panel, 48 h
786-0 renal = system: 786-0 renal
A549 NSCLC = system: A549 NSCLC
CAKI-1 renal = system: CAKI-1 renal
COLO 205 colon = system: COLO 205 colon
DLD-1 colon = system: DLD-1 colon
DMS 114 small cell lung = system: DMS 114 small cell lung
DMS 273 small cell lung = system: DMS 273 small cell lung
EKVX NSCLC = system: EKVX NSCLC
HCC-2998 colon = system: HCC-2998 colon
HCT-15 colon = system: HCT-15 colon
HL-60(TB) leukemia = system: HL-60(TB) leukemia
HOP-62 NSCLC = system: HOP-62 NSCLC
HOP-92 NSCLC = system: HOP-92 NSCLC
HT29 colon = system: HT29 colon
IGROV1 ovarian = system: IGROV1 ovarian
K-562 leukemia = system: K-562 leukemia
KM20L2 colon = system: KM20L2 colon
LOX IMVI melanoma = system: LOX IMVI melanoma
LXFL 529 NSCLC = system: LXFL 529 NSCLC
M14 melanoma = system: M14 melanoma
MALME-3M melanoma = system: MALME-3M melanoma
MOLT-4 leukemia = system: MOLT-4 leukemia
NCI-H23 lung = system: NCI-H23 lung
NCI-H460 lung = system: NCI-H460 lung
OVCAR-3 ovarian = system: OVCAR-3 ovarian
OVCAR-4 ovarian = system: OVCAR-4 ovarian
OVCAR-8 ovarian = system: OVCAR-8 ovarian
RPMI-8226 leukemia = system: RPMI-8226 leukemia
RXF 393 renal = system: RXF 393 renal
SF-268 CNS = system: SF-268 CNS
SF-295 CNS = system: SF-295 CNS
SK-MEL-28 melanoma = system: SK-MEL-28 melanoma
SK-OV-3 ovarian = system: SK-OV-3 ovarian
SN12C renal = system: SN12C renal
SNB-19 CNS = system: SNB-19 CNS
SNB-75 CNS = system: SNB-75 CNS
SNB-78 CNS = system: SNB-78 CNS
SW-620 colon = system: SW-620 colon
TK-10 renal = system: TK-10 renal
U251 CNS = system: U251 CNS
UACC-62 melanoma = system: UACC-62 melanoma
UO-31 renal = system: UO-31 renal
XF 498 CNS = system: XF 498 CNS
CCRF-CEM leukemia = system: CCRF-CEM leukemia
HCT-116 colon = system: HCT-116 colon
HOP-18 NSCLC = system: HOP-18 NSCLC
KM12 colon = system: KM12 colon
M19-MEL melanoma = system: M19-MEL melanoma
NCI-H522 lung = system: NCI-H522 lung
OVCAR-5 ovarian = system: OVCAR-5 ovarian
SF-539 CNS = system: SF-539 CNS
SK-MEL-2 melanoma = system: SK-MEL-2 melanoma
SK-MEL-5 melanoma = system: SK-MEL-5 melanoma
SR leukemia = system: SR leukemia
UACC-257 melanoma = system: UACC-257 melanoma
A498 renal = system: A498 renal
ACHN renal = system: ACHN renal
HS 578T breast = system: HS 578T breast
MCF7 breast = system: MCF7 breast
MDA-MB-231 breast = system: MDA-MB-231 breast
NCI-H226 lung = system: NCI-H226 lung
NCI/ADR-RES ovarian = system: NCI/ADR-RES ovarian
PC-3 prostate = system: PC-3 prostate
RXF-631 renal = system: RXF-631 renal

Structure (SMILES): Cc1cc(C)c2c(c1)Nc1ccccc1P2c1ccccc1 (configuration not stated)
- TGI (786-0 renal): > 100 µM
- TGI (A549 NSCLC): > 100 µM
- TGI (CAKI-1 renal): 98.1 µM
- TGI (COLO 205 colon): > 100 µM
- TGI (DLD-1 colon): 65.7 µM
- TGI (DMS 114 small cell lung): > 100 µM
- TGI (DMS 273 small cell lung): 50.7 µM
- TGI (EKVX NSCLC): 91.1 µM
- TGI (HCC-2998 colon): 60 µM
- TGI (HCT-15 colon): > 100 µM
- TGI (HL-60(TB) leukemia): 59.6 µM
- TGI (HOP-62 NSCLC): 66.8 µM
- TGI (HOP-92 NSCLC): 58.9 µM
- TGI (HT29 colon): > 100 µM
- TGI (IGROV1 ovarian): > 100 µM
- TGI (K-562 leukemia): > 100 µM
- TGI (KM20L2 colon): 74.7 µM
- TGI (LOX IMVI melanoma): > 100 µM
- TGI (LXFL 529 NSCLC): > 100 µM
- TGI (M14 melanoma): > 100 µM
- TGI (MALME-3M melanoma): 71.8 µM
- TGI (MOLT-4 leukemia): > 100 µM
- TGI (NCI-H23 lung): 83.8 µM
- TGI (NCI-H460 lung): 50.8 µM
- TGI (OVCAR-3 ovarian): 61 µM
- TGI (OVCAR-4 ovarian): > 100 µM
- TGI (OVCAR-8 ovarian): > 100 µM
- TGI (RPMI-8226 leukemia): 26.7 µM
- TGI (RXF 393 renal): > 100 µM
- TGI (SF-268 CNS): > 100 µM
- TGI (SF-295 CNS): 56.3 µM
- TGI (SK-MEL-28 melanoma): > 100 µM
- TGI (SK-OV-3 ovarian): > 100 µM
- TGI (SN12C renal): > 100 µM
- TGI (SNB-19 CNS): 83.9 µM
- TGI (SNB-75 CNS): 78.5 µM
- TGI (SNB-78 CNS): > 100 µM
- TGI (SW-620 colon): > 100 µM
- TGI (TK-10 renal): > 100 µM
- TGI (U251 CNS): > 100 µM
- TGI (UACC-62 melanoma): > 100 µM
- TGI (UO-31 renal): 57.8 µM
- TGI (XF 498 CNS): 33.3 µM

Structure (SMILES): COc1ccc(N(C)Sc2ccccc2)cc1
- TGI (786-0 renal): 34.9 µM
- TGI (A549 NSCLC): > 100 µM
- TGI (CCRF-CEM leukemia): 58.6 µM
- TGI (COLO 205 colon): > 100 µM
- TGI (DLD-1 colon): > 100 µM
- TGI (DMS 114 small cell lung): > 100 µM
- TGI (DMS 273 small cell lung): > 100 µM
- TGI (HCC-2998 colon): > 100 µM
- TGI (HCT-116 colon): > 100 µM
- TGI (HCT-15 colon): > 100 µM
- TGI (HL-60(TB) leukemia): 52.3 µM
- TGI (HOP-18 NSCLC): > 100 µM
- TGI (HOP-62 NSCLC): > 100 µM
- TGI (HOP-92 NSCLC): > 100 µM
- TGI (IGROV1 ovarian): > 100 µM
- TGI (K-562 leukemia): > 100 µM
- TGI (KM12 colon): > 100 µM
- TGI (KM20L2 colon): > 100 µM
- TGI (LOX IMVI melanoma): > 100 µM
- TGI (LXFL 529 NSCLC): > 100 µM
- TGI (M14 melanoma): > 100 µM
- TGI (M19-MEL melanoma): > 100 µM
- TGI (MALME-3M melanoma): > 100 µM
- TGI (MOLT-4 leukemia): 75.6 µM
- TGI (NCI-H23 lung): > 100 µM
- TGI (NCI-H460 lung): > 100 µM
- TGI (NCI-H522 lung): > 100 µM
- TGI (OVCAR-3 ovarian): > 100 µM
- TGI (OVCAR-5 ovarian): > 100 µM
- TGI (OVCAR-8 ovarian): > 100 µM
- TGI (RPMI-8226 leukemia): > 100 µM
- TGI (RXF 393 renal): 53.4 µM
- TGI (SF-268 CNS): > 100 µM
- TGI (SF-295 CNS): > 100 µM
- TGI (SF-539 CNS): 56 µM
- TGI (SK-MEL-2 melanoma): > 100 µM
- TGI (SK-MEL-28 melanoma): > 100 µM
- TGI (SK-MEL-5 melanoma): > 100 µM
- TGI (SK-OV-3 ovarian): > 100 µM
- TGI (SN12C renal): 75.3 µM
- TGI (SNB-19 CNS): > 100 µM
- TGI (SNB-78 CNS): > 100 µM
- TGI (SR leukemia): > 100 µM
- TGI (SW-620 colon): > 100 µM
- TGI (TK-10 renal): > 100 µM
- TGI (U251 CNS): > 100 µM
- TGI (UACC-257 melanoma): > 100 µM
- TGI (UACC-62 melanoma): > 100 µM
- TGI (UO-31 renal): > 100 µM
- TGI (XF 498 CNS): 96.6 µM

Structure (SMILES): CCCCCCCCCCC(O)[C@H]1CCC(C2CC[C@H]([C@H](O)CCCCCCCCCCC(O)CC3=CC(C)OC3=O)O2)O1 (some centres not stated)
- GI50 (786-0 renal): 2.68 µM
- TGI (786-0 renal): 7.1 µM
- GI50 (A498 renal): 3.15 µM
- TGI (A498 renal): 9.03 µM and 53.2 µM
- GI50 (A549 NSCLC): 2.96 µM
- TGI (A549 NSCLC): > 100 µM
- TGI (ACHN renal): 2.9 µM
- GI50 (CAKI-1 renal): 4.09 µM
- TGI (CCRF-CEM leukemia): 5.37 µM
- GI50 (COLO 205 colon): 2.17 µM
- TGI (COLO 205 colon): 2.84 µM and 5.12 µM
- TGI (DLD-1 colon): > 100 µM
- TGI (DMS 114 small cell lung): 3.01 µM
- TGI (DMS 273 small cell lung): 4.4 µM
- GI50 (EKVX NSCLC): 2.09 µM
- TGI (HCC-2998 colon): 15 µM
- GI50 (HCT-116 colon): 2.24 µM
- TGI (HCT-116 colon): 8.87 µM and 10 µM
- GI50 (HCT-15 colon): 1.23 µM
- TGI (HCT-15 colon): 3.7 µM and 5.88 µM
- TGI (HL-60(TB) leukemia): 6.37 µM
- TGI (HOP-62 NSCLC): 4.89 µM and 5.88 µM
- TGI (HOP-92 NSCLC): 5.87 µM and 6.72 µM
- TGI (HS 578T breast): 3.5 µM
- TGI (HT29 colon): 2.88 µM and 14.4 µM
- GI50 (K-562 leukemia): < 0.01 µM
- TGI (K-562 leukemia): 4.55 µM
- TGI (KM12 colon): 3.66 µM
- TGI (KM20L2 colon): 19.4 µM
- GI50 (LOX IMVI melanoma): 1.18 µM
- TGI (LOX IMVI melanoma): 3.09 µM and 2.92 µM
- TGI (LXFL 529 NSCLC): 9.79 µM
- GI50 (M14 melanoma): 7 µM
- TGI (M19-MEL melanoma): 8.92 µM
- TGI (MALME-3M melanoma): 4.32 µM
- TGI (MCF7 breast): 4.44 µM
- TGI (MDA-MB-231 breast): 4.23 µM
- TGI (MOLT-4 leukemia): 3.69 µM
- TGI (NCI-H226 lung): 2.57 µM and 3.36 µM
- GI50 (NCI-H23 lung): < 0.01 µM
- TGI (NCI-H23 lung): 4.03 µM and 7.12 µM
- GI50 (NCI-H460 lung): 2.16 µM
- TGI (NCI-H460 lung): 4.12 µM and 29.9 µM
- TGI (NCI-H522 lung): 5.06 µM
- TGI (NCI/ADR-RES ovarian): 2.11 µM
- GI50 (OVCAR-3 ovarian): 0.674 µM
- TGI (OVCAR-3 ovarian): 4.01 µM and 3.32 µM
- TGI (OVCAR-4 ovarian): 11.7 µM
- GI50 (OVCAR-5 ovarian): 2.58 µM
- TGI (OVCAR-5 ovarian): 9.11 µM
- GI50 (OVCAR-8 ovarian): 2.29 µM
- TGI (OVCAR-8 ovarian): 2.8 µM and 18.4 µM
- TGI (PC-3 prostate): 3.73 µM
- GI50 (RPMI-8226 leukemia): 0.615 µM
- TGI (RPMI-8226 leukemia): 3.2 µM
- TGI (RXF 393 renal): 5 µM
- TGI (RXF-631 renal): 8.13 µM
- GI50 (SF-268 CNS): 1.11 µM
- TGI (SF-268 CNS): 3.67 µM and 8.61 µM
- GI50 (SF-295 CNS): 0.29 µM
- TGI (SF-295 CNS): 14.1 µM
- TGI (SF-539 CNS): 2.9 µM and 5.61 µM
- GI50 (SK-MEL-2 melanoma): 1.76 µM
- TGI (SK-MEL-2 melanoma): 3.43 µM and 4.72 µM
- TGI (SK-MEL-28 melanoma): 7.73 µM
- GI50 (SK-MEL-5 melanoma): < 0.01 µM
- TGI (SK-MEL-5 melanoma): 2.47 µM and 1.74 µM
- TGI (SK-OV-3 ovarian): 15.7 µM
- GI50 (SN12C renal): 1.76 µM
- GI50 (SNB-19 CNS): 2.05 µM
- TGI (SNB-19 CNS): 6.96 µM and 32.1 µM
- GI50 (SNB-75 CNS): 2.25 µM
- TGI (SNB-75 CNS): 5.08 µM and 5.94 µM
- TGI (SNB-78 CNS): 8.16 µM
- TGI (SR leukemia): 9.23 µM
- GI50 (SW-620 colon): 2.51 µM
- TGI (SW-620 colon): 6.83 µM and 12 µM
- GI50 (TK-10 renal): 4.05 µM
- GI50 (U251 CNS): 3.58 µM
- TGI (U251 CNS): > 100 µM
- TGI (UACC-257 melanoma): 4.83 µM and 5.13 µM
- GI50 (UACC-62 melanoma): 1.97 µM
- TGI (UACC-62 melanoma): 4.03 µM and 14.2 µM
- TGI (UO-31 renal): 2.36 µM and 2.67 µM
